{"source": "patent US20120165412A1", "about": "“Use of Resveratrol or Another Hydroxylated Stilbene For Preserving Cognitive Functioning” (N.V. Nutricia, priority 2009, published 2012)", "key": {"hippocampal microvessels": {"system": "hippocampal microvessels", "test": "Electron microscopy of the cerebrovascular system", "assay_type": "in vivo, male C57BI/6 mice", "details": "age 24 months", "protocol": "(§1) The experiment was performed with male C57BI/6 mice (Harlan, Horst, The Netherlands). Animals were individually housed under a 12 hours light/12 hours dark cycle with lights on at 8:00. Food and drinking water were provided ad libitum, except for the period of behavioural testing as described below. The experiment was started with 60 mice, half of which served as control (CON) and half of which received resveratrol in their food from the age of 1 year onwards (RES). Between the ages of 18 and 20 month, spatial learning performance of the animals was studied in a Y-maze test. At the age of 24 month, brains were collected and processed for immunocytochemistry to asses cholinergic parameters and electron microscopy for several cerebrovascular analyses. The procedures concerning animal care and treatment were in accordance with the regulations of the ethical committee for the use of experimental animals of the University of Groningen.\nAt the age of 24 months animals were sacrificed for histochemical and electronmicroscopical analysis. Mice were anaesthetized by a high dose of pentobarbital sodium salt (Nembutal, 60 mg/kg bodyweight) and transcardially perfused with heparinised saline followed by 4% phosphate buffered paraformaldehyde. After perfusions, brains were removed from the skull and kept in 0.01 M PBS overnight. […]\nAfter perfusion, 18 brains were prepared for electron microscopy using standard methods. […] The samples were then coverslipped with DPX and analyzed under a light microscope. […] Finally, the samples were analyzed and photographs were taken with a Philips TM10 transmission electron microscope.\nFor quantitative analysis, approximately 4000 μm^2 tissue surface was scanned systematically in each region, and 61±10 microvascular cross sections were examined in each sample. Vascular density was calculated for a standard surface area with the help of the sample grid. In addition to microvessel density, the occurrence of the following features were quantitated: luminal endothelial protrusions, large empty endothelial vacuoles and basement membrane thickening. […] The number of microvessels displaying any of the noted abnormalities was counted and expressed as percentage of the total number of microvessels examined. Capillaries and arterioles were analyzed separately. Since arterioles were encountered at high enough number for statistical analysis only in the hippocampal vascular layer, quantitative analysis of arteriolar condition was performed for this region of the hippocampus alone.\n(§2) Behavioural performance was statistically analyzed with a one way ANOVA paradigm for repeated measures. Immunocytochemical data and EM data were statistically analyzed with an independent samples T-test (2-tailed). Data are expressed as averages ±S.E.M. P<0.05 was considered as significant."}, "aged mice [1]": {"system": "aged mice", "test": "Open field test (general explorative activity)", "assay_type": "in vivo, male C57BI/6 mice", "details": "chronic supplementation", "protocol": "as §1, with “The procedures concerning animal care and treatment were in accordance with the regulations of the ethical committee for the use of experimental animals of the University of Groningen.” left out\nTo examine general explorative activity, mice were subjected to an open-field test for 5 minutes. […] Position and locomotion of the mice was recorded and analyzed with a computerized video tracking system (Ethovision, Noldus Information Technology, Wageningen, The Netherlands). The number of visits and time spend in each of the two zones was determined. […]\nas §2"}, "[2]": {"test": "Survival, food intake, body weight and general health under chronic dietary supplementation", "assay_type": "in vivo", "protocol": "as §1\nTo rule out differences in food intake between animals on a control diet and resveratrol-supplemented diet, food intake and body weight were monitored every two weeks. To establish whether resveratrol provided in the food enters the circulation, a pilot experiment was performed in which blood was collected from mice by decapitation after 1 day and 30 days of supplementation. Plasma concentrations of resveratrol were measured. After 1 day of supplementation, resveratrol levels in the plasma were 88.5 μg/l at the end of the dark phase or active phase, when mice consume most of their food, and 41 μg/l at the end of the light phase or resting phase (n=3 each). After 1 month of supplementation, the levels were 102.7 and 30.7 μg/l at the end of active phase and rest phase, respectively (n=3 each). These measurements confirm that resveratrol ingested via the food indeed entered the circulation, and the levels appeared to fluctuate over the day in a fashion that paralleled food intake. Supplementation of resveratrol via food thus seemed an appropriate and simple method for further studies.\nAnimals received resveratrol in their food from 1 year of age onwards. […]"}, "aged mice [3]": {"system": "aged mice", "test": "Y-maze spatial learning test", "assay_type": "in vivo, male C57BI/6 mice", "protocol": "as §1\nTo examine cognitive performance, the mice were subjected to a Y-maze test in which they had to learn the location of a food reward in one of two accessible choice arms. […] The home cages of the mice were equipped with a small sliding door that connected to the starting arm. One of the two test arms was baited with a food reward consisting of small crumbs of the regular food. Food crumbs were also placed below perforations at the end of the two test arms to prevent animals from discriminating between baited and non-baited arms by olfactory cues. […]\nThe Y-maze test took place during the first half of the light phase between 10:00 and 14:00 in a room adjacent to the home cage room. […] A visit to the baited arm was recorded as a correct trial. […]\nas §2"}, "[4]": {"system": "cholinergic system (nucleus basalis, hippocampus)", "test": "AChE histochemistry of cholinergic cells and fibres", "assay_type": "in vivo, male C57BI/6 mice", "details": "age 24 months, RES versus CON", "protocol": "The experiment was performed with male C57BI/6 mice (Harlan, Horst, The Netherlands). Animals were individually housed under a 12 hours light/12 hours dark cycle with lights on at 8:00. Food and drinking water were provided ad libitum, except for the period of behavioural testing as described below. The experiment was started with 60 mice, half of which served as control (CON) and half of which received resveratrol in their food from the age of 1 year onwards (RES). Between the ages of 18 and 20 month, spatial learning performance of the animals was studied in a Y-maze test. […]\nFor histology, brain tissue was cryoprotected in 30% sucrose in 0.1 M phosphate buffer for 48 h after which 20 μm sections were cut with a cryostat (Leica CM3050). […] Cells positive for AChE were quantified in sections containing nucleus basalis (around bregma −0.7) and AChE fibre density measurements were performed by a computerized image analysis system Quantimet (Leica) in the dorsal hippocampus.\nas §2"}, "[5]": {"details": "hippocampal microvessels, versus control"}}}
{"smiles": "Oc1ccc(C=Cc2cc(O)cc(O)c2)cc1", "note": "[Resveratrol, 3,5,4′-trihydroxystilbene]", "values": [{"measurement": "vascular density in the hippocampus, higher than in control animals", "setting": "hippocampal microvessels; chronic supplementation, p=0.019", "value": "about 15%"}, {"measurement": "number of microvessels with endothelial vacuoles", "setting": "hippocampal microvessels; hippocampal arterioles, versus control, p=0.05", "value": "significantly reduced"}, {"measurement": "occurrence of basement membrane thickening", "setting": "hippocampal microvessels; [5]", "value": "not significantly affected"}, {"measurement": "occurrence of endothelial processes", "setting": "hippocampal microvessels; [5]", "value": "not significantly affected"}, {"measurement": "more time spent in the centre of the arena than control animals", "setting": "aged mice [1]; 5 minutes open field test, p=0.003", "value": "about 50%"}, {"measurement": "locomotion (total distance covered) in open field", "setting": "aged mice [1]; 5 minutes test, RES versus CON", "value": "the same amount of locomotion"}, {"measurement": "food intake, growth and body weight", "setting": "[2]; mouse, in vivo", "value": "did not affect food intake, growth and body weight"}, {"measurement": "general health (regular visual inspection)", "setting": "[2]; mouse, in vivo", "value": "did not indicate obvious differences in general health"}, {"measurement": "mortality rate", "setting": "[2]; resveratrol in food from 1 year to 24 months of age, RES versus CON", "value": "no significant differences in mortality rate"}, {"measurement": "Y-maze final level of performance on day 3 and retention trial on day 10", "setting": "aged mice [3]; RES versus CON", "value": "not different"}, {"measurement": "Y-maze performance on the second day of the training phase", "setting": "aged mice [3]; posthoc test, RES versus CON, p<0.05", "value": "performed better then CON animals"}, {"measurement": "Y-maze learning (number of correct choices on day 1 to 3)", "setting": "aged mice [3]; training phase, age 18-20 months, repeated measures ANOVA p=0.016", "value": "improved learning"}, {"measurement": "cholinergic cell number in the nucleus basalis", "setting": "[4]", "value": "did not reveal any difference"}, {"measurement": "cholinergic fibre density in the CA1 and dentate gyrus of the hippocampus", "setting": "[4]", "value": "unchanged"}]}
